This is an account of results in the NIST ThermoML archive (doi:10.1021/acs.jced.5b00331).

Data set [1] is described as follows: xn = mol fraction of the nth substance listed. The conditions noted are these: 101 kPa, Liquid; for mass density: Vibrating tube method; for excess molar volume: Direct dilatometry.
The conditions of data set [2]: 313.15 K; 101.33 kPa; Liquid; Vibrating tube method.

SMILES strings stand for the structures. ± gives the expanded uncertainty stated by the source.

Broadly, the mass density is the mass of a sample divided by its volume. In the case of `C1CCCCCC1` [cycloheptane] + C1CCCC1, in data set [1] (313.15 K, x2 = 0.4999), the mass density is listed as 762.9 ± 0.2 kg/m3.
As to `C1CCCCC1` [cyclohexane], the mass density in data set [2] came to 759.8 ± 0.2 kg/m3.
For the molecule `CCCCCCCCCCCCCCCCCCCCCC` [docosane] + CCCCCCCCCC, in data set [1] (313.15 K, x2 = 0.5001), the mass density is 758.9 ± 0.2 kg/m3.
For the molecule `CCCCCCCCCCCCCCCC` [hexadecane], in data set [2], the mass density turned out to be 762.9 ± 0.3 kg/m3.
In the case of `CCCCCCCCCCCCCCCC` [hexadecane] + C1CCCCC1, the excess molar volume in data set [1] (313.15 K, x2 = 0.0083) came out at 1.32e-08 ± 2.8e-09 m3/mol; in data set [1] (313.15 K, x2 = 0.03441), 5.31e-08 ± 2.9e-09 m3/mol; in data set [1] (313.15 K, x2 = 0.0839), 1.341e-07 ± 3.1e-09 m3/mol; in data set [1] (313.15 K, x2 = 0.1372), 2.074e-07 ± 3.8e-09 m3/mol; in data set [1] (313.15 K, x2 = 0.2221), 3.185e-07 ± 5.1e-09 m3/mol; in data set [1] (313.15 K, x2 = 0.3029), 4.088e-07 ± 6.6e-09 m3/mol. Also, the excess molar volume in data set [1] (313.15 K, x2 = 0.3641) is recorded as 4.671e-07 ± 7.7e-09 m3/mol; in data set [1] (313.15 K, x2 = 0.4199) it was 5.136e-07 ± 8.8e-09 m3/mol; in data set [1] (313.15 K, x2 = 0.4911), 5.593e-07 ± 1e-08 m3/mol; in data set [1] (313.15 K, x2 = 0.5316) it was 5.779e-07 ± 9.7e-09 m3/mol; in data set [1] (313.15 K, x2 = 0.5632), 5.878e-07 ± 9.2e-09 m3/mol; in data set [1] (313.15 K, x2 = 0.59), 5.938e-07 ± 8.6e-09 m3/mol. Besides, the excess molar volume was 5.968e-07 ± 8e-09 m3/mol in data set [1] (313.15 K, x2 = 0.6216); 5.956e-07 ± 7.4e-09 m3/mol in data set [1] (313.15 K, x2 = 0.6527); 5.888e-07 ± 6.9e-09 m3/mol in data set [1] (313.15 K, x2 = 0.6834); 5.731e-07 ± 6.3e-09 m3/mol in data set [1] (313.15 K, x2 = 0.7073); 5.728e-07 ± 6.1e-09 m3/mol in data set [1] (313.15 K, x2 = 0.7163); 5.731e-07 ± 6.1e-09 m3/mol in data set [1] (313.15 K, x2 = 0.7223). Also, the excess molar volume was 5.558e-07 ± 6.1e-09 m3/mol in data set [1] (313.15 K, x2 = 0.7489); 5.513e-07 ± 6.1e-09 m3/mol in data set [1] (313.15 K, x2 = 0.7508); 5.318e-07 ± 5.3e-09 m3/mol in data set [1] (313.15 K, x2 = 0.7749); 5.039e-07 ± 4.8e-09 m3/mol in data set [1] (313.15 K, x2 = 0.8022); 4.675e-07 ± 4.5e-09 m3/mol in data set [1] (313.15 K, x2 = 0.8303); 3.939e-07 ± 4e-09 m3/mol in data set [1] (313.15 K, x2 = 0.8736). The excess molar volume in data set [1] (313.15 K, x2 = 0.8928) is 3.535e-07 ± 3.9e-09 m3/mol; in data set [1] (313.15 K, x2 = 0.9106), 3.105e-07 ± 3.9e-09 m3/mol; in data set [1] (313.15 K, x2 = 0.9242), 2.747e-07 ± 4e-09 m3/mol; in data set [1] (313.15 K, x2 = 0.9453), 2.13e-07 ± 4e-09 m3/mol; in data set [1] (313.15 K, x2 = 0.9634) it was 1.518e-07 ± 4.4e-09 m3/mol; in data set [1] (313.15 K, x2 = 0.9801), 8.6e-08 ± 4.7e-09 m3/mol. Besides, the excess molar volume in data set [1] (313.15 K, x2 = 0.988) worked out at 5.32e-08 ± 4.9e-09 m3/mol; in data set [1] (313.15 K, x2 = 0.9948), 2.3e-08 ± 5e-09 m3/mol.
Consider `CCCCCCCCCCCCCCCCCC` [octadecane] + CCCCCCCCCCCCCC, for which the mass density in data set [1] (313.15 K, x2 = 0.5001) stood at 758.4 ± 0.2 kg/m3.
On to `CCCCCCCCCCCCCCCCCCCCCCCC` [tetracosane] + CCCCCCCC, for which the mass density in data set [1] (313.15 K, x2 = 0.5) is listed as 758.8 ± 0.3 kg/m3; in data set [1] (315.65 K, x2 = 0.5), 757.1 ± 0.3 kg/m3.
